Source: article PMC10028264, “Synergistic antifungal interaction of N-(butylcarbamothioyl) benzamide and amphotericin B against Cryptococcus neoformans” (Frontiers in Microbiology, 2023)
Converted amounts (≈) assume the structure as drawn.

Columns and labels:
[1] = tested on: C neoformans mature biofilms; design: method as in Martinez and Casadevall, 2006; conditions: strains ATCC 24067, ATCC B3501 and H99; ref Martinez and Casadevall, 2006; cited from earlier work
cryptococcal urease = molecular target: T1, cryptococcal urease (Cryptococcus neoformans, UniProt O13465); experiment: Urease activity inhibition test (indophenol method, crude protein extract); format: biochemical
T1 construct: 100 μL of crude protein extract; endogenous in cells; host or cells: Cryptococcus neoformans ATCC 34872, crude lysate (glass-bead lysis, supernatant)
T1 sequence (O13465 whole entry): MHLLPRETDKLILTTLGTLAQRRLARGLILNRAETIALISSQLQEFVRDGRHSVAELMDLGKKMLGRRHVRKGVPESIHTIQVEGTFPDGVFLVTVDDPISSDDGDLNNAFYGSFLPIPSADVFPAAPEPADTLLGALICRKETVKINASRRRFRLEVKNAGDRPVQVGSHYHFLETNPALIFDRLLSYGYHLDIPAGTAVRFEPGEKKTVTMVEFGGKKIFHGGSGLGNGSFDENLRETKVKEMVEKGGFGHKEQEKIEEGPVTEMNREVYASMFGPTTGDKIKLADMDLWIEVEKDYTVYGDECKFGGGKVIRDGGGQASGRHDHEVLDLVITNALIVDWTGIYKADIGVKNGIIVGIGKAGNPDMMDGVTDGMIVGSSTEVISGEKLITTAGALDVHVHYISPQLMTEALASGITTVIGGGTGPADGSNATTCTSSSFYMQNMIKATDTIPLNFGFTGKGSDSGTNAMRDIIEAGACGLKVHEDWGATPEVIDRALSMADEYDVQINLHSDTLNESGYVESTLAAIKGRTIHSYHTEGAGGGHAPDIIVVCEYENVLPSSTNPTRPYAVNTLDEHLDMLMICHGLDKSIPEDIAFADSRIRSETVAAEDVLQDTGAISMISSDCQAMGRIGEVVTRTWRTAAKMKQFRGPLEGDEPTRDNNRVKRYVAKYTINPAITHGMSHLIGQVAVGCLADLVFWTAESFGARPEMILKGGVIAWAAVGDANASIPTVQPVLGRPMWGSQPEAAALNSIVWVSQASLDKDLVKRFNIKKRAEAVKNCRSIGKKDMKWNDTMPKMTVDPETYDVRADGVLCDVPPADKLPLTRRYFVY
Method: Five colonies of C. neoformans were suspended in 100 μL SD broth and inoculated onto SD agar using a Drigalski spreader, and the culture was incubated at 37°C for 48 h. Afterward, all fungal growth was gently scraped and transferred to conical flasks containing 300 mL of SD broth and incubated with shaking (150 rpm) at 37°C for further 48 h. Cells were centrifuged (6,000 × g, 10 min) and washed three times with distilled water. The protein extraction was performed according to [Moller et al. (2016)] with modifications. Briefly, fungal cells were resuspended in 10 mL of chilled lysis buffer consisting of 100 μM Nα-tosyl-L-lysine chloromethyl ketone hydrochloride (TLCK), 1 mM EDTA, 10% glycerol and 0.15 M phosphate-buffered saline (PBS), pH 8.0. […] Then, the cell debris was removed by centrifugation (6,000 × g, 15 min, 4°C), and the protein content of the resulting supernatant was quantified using the […].
The inhibition of urease activity was evaluated by the indophenol method ([Weatherburn, 1967]). […] The reaction mixtures were incubated for further 10 min at 45°C, and the optical density (OD) was measured at 630 nm. Urease inhibition percentage (I%) was calculated according to the equation: I% = 100–(ODBTU–01/ODcontrol) × 100. […]

human erythrocytes = experiment: Hemolysis assay; format: cell-based; conditions: estimated from the highest concentration tested; all cryptococcal strains
Method: The cytotoxicity of BTU-01 (1.95–1000.0 μg/mL) alone and combined with AmB (0.015–16.0 μg/mL) was evaluated on human erythrocytes. Blood from a healthy donor was collected according to the Declaration of Helsinki principles, defibrinated and an erythrocytes suspension (3%) was prepared in 5% glycosylated saline. A total of 100 μL of the erythrocytes suspension was incubated for 3 h at 37°C in wells of U-bottom 96-well polystyrene plates containing different concentrations of the compounds. Wells without the compounds and with 1% Triton X-100 were used as negative and positive hemolysis controls, respectively. The OD of the supernatant was determined at 550 nm with a microtiter plate reader (Synergy HT, BioTek, USA). The percentage of hemolysis was calculated by comparison with the positive control ([Izumi et al., 2012]).
(§1) The concentration of BTU-01 capable of causing 90% of hemolysis/cytotoxicity was used to calculate the selectivity index (SI) using the following equation: SI = CC90/MIC.

[2] = Cytotoxicity, MTT reduction assay; format: cell-based, human; conditions: human, HEp-2 CCL-23 cells, 24 h, MTT
Method: (§2) The effect of BTU-01 was analyzed on mammalian epithelial cell lines [HEp-2 CCL-23™ (ATCC), LLC-MK2, VERO CCL81 and HeLa (Merck, Brazil)], and the cytotoxicity was evaluated as described by [Longhi et al. (2016)] with modifications. Briefly, cells were cultured in Dulbecco’s Modified Eagle’s medium (DMEM) supplemented with 10% fetal bovine serum (Invitrogen, Brazil), 2 mM L-glutamine, 100 IU/mL penicillin, 100 μg/mL streptomycin, 1% tylosin in flat-bottomed 96-well microtiter plates, in 5% CO2 at 37°C for 48 h. Then, the medium was carefully removed and fresh medium containing twofold serially diluted BTU-01 (0.095–500.0 μg/mL) was added. The cells were incubated for further 24 h under the same conditions. Cell viability was analyzed by the MTT reduction assay according to the manufacturer’s recommendation. The concentration of the compound needed to inhibit the viable cells up to 50 and 90% by regression analysis corresponds to the 50% (CC50) and 90% (CC90) cytotoxic concentrations, respectively.
as §1

HEp-2 CCL-23 = experiment: Cytotoxicity, MTT reduction assay; format: cell-based, human; conditions: SI = CC90/MIC, MIC 62.5 μg/mL
Method: as §2, §1

[3] = Cytotoxicity, MTT reduction assay; format: cell-based; conditions: 24 h, MTT
Method: as §2, §1

VERO-CCL81 = experiment: Cytotoxicity, MTT reduction assay; format: cell-based; conditions: SI = CC90/MIC, MIC 62.5 μg/mL
Method: as §2, §1

LLC-MK2 = experiment: Cytotoxicity, MTT reduction assay; format: cell-based; conditions: SI = CC90/MIC, MIC 62.5 μg/mL
Method: as §2, §1

HeLa = experiment: Cytotoxicity, MTT reduction assay; format: cell-based; conditions: SI = CC90/MIC, MIC 62.5 μg/mL
Method: as §2, §1

[4] = African green monkey, VERO CCL81 cells

SMILES	concentration inhibiting metabolic activity of mature biofilms [1]	IC50 (cryptococcal urease)	SI (human erythrocytes)	CC50 at 24 h [2]	CC90 at 24 h [2]	SI (HEp-2 CCL-23)	CC50 at 24 h [3, 4]	CC90 at 24 h [3, 4]	CC50 at 24 h ([3]; human, HeLa cells)	CC90 at 24 h ([3]; human, HeLa cells)	CC50 at 24 h ([3]; rhesus monkey, LLC-MK2 cells)	CC90 at 24 h ([3]; rhesus monkey, LLC-MK2 cells)	SI (VERO-CCL81)	SI (LLC-MK2)	SI (HeLa)
C[C@@H]1[C@H](O)[C@@H](C)/C=C/C=C/C=C/C=C/C=C/C=C/C=C/[C@H](O[C@@H]2O[C@H](C)[C@@H](O)[C@H](N)[C@@H]2O)C[C@@H]2O[C@](O)(C[C@@H](O)C[C@@H](O)[C@H](O)CC[C@@H](O)C[C@@H](O)CC(=O)O[C@H]1C)C[C@H](O)[C@H]2C(=O)O [Amphotericin B, amphotericin B]	higher than 2.0 μg/mL														
CCCCNC(=S)NC(=O)c1ccccc1 [BTU-01, N-(butylcarbamothioyl) benzamide]		226 µM	greater than 16	104 µg/mL (≈ 441 µM)	245 µg/mL (≈ 1040 µM)	3.9	121 µg/mL (≈ 513 µM)	244 µg/mL (≈ 1030 µM)	83.8 µg/mL (≈ 355 µM)	154 µg/mL (≈ 650 µM)	71.7 µg/mL (≈ 303 µM)	143 µg/mL (≈ 603 µM)	3.9	2.3	2.5
